In patent US12565505B2, “mTORC modulators and uses thereof” (Aeovian Pharmaceuticals, Inc., priority 2019, dated 2026):

What was measured:
[1] = molecular target: T1, mTORC2 (Homo sapiens, UniProt P42345+P62942); test: Inhibition assay for mTORC2: phosphorylation of pAkt at Ser473, AlphaLISA SureFire in PC3 cells; type: cell-based; settings: PC3 cells, 24 hours treatment, analogs substituted at C40 and C16 (C16 diastereomer mixtures not isolated), read-out: pIC50 mTORC2 (converted)
T1 construct: endogenous in cells; host or cells: PC3 cells (human prostate adenocarcinoma)
In short: (§1)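 Human prostate adenocarcinoma PC3 cells treated with compounds for 24 h. AlphaLISA SureFire read-out of pS6K Thr389 for mTORC1 and pAkt Ser473 for mTORC2, from which IC50s were derived.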

[2] = molecular target: T2, mTORC1 (Homo sapiens, UniProt P42345+P62942); test: Inhibition assay for mTORC1: phosphorylation of pS6K at Thr389, AlphaLISA SureFire in PC3 cells; type: cell-based; settings: PC3 cells, 24 hours treatment, pS6K Thr389; analogs substituted at C40 and C16 (C16 diastereomer mixtures not isolated); read-out: pIC50 mTORC1 (converted)
T2 construct: endogenous in cells; host or cells: PC3 cells (human prostate adenocarcinoma)
In short: as §1

IC50 [1] [nM] | IC50 [2] [nM] | SMILES
< 1000 | < 0.316 | CO[C@@H]1C[C@H](C[C@@H](C)[C@@H]2CC(=O)[C@H](C)/C=C(\C)[C@@H](O)[C@@H](OC)C(=O)[C@H](C)C[C@H](C)/C=C/C=C/C=C(\C)C(OCCc3ccccc3)C[C@@H]3CC[C@@H](C)[C@@](O)(O3)C(=O)C(=O)N3CCCCC3C(=O)O2)CC[C@H]1OCCCN1CCN(C)CC1 (stereo partly drawn) [Compound 97]
1000 to 10000 | < 0.316 | CO[C@@H]1C[C@H](C[C@@H](C)[C@@H]2CC(=O)[C@H](C)/C=C(\C)[C@@H](O)[C@@H](OC)C(=O)[C@H](C)C[C@H](C)/C=C/C=C/C=C(\C)C(OCCc3ccccc3)C[C@@H]3CC[C@@H](C)[C@@](O)(O3)C(=O)C(=O)N3CCCCC3C(=O)O2)CC[C@H]1OCCO (stereo partly drawn) [Compound 99]
< 1000 | < 0.316 | CO[C@@H]1C[C@H](C[C@@H](C)[C@@H]2CC(=O)[C@H](C)/C=C(\C)[C@@H](O)[C@@H](OC)C(=O)[C@H](C)C[C@H](C)/C=C/C=C/C=C(\C)C(OCCc3ccccc3)C[C@@H]3CC[C@@H](C)[C@@](O)(O3)C(=O)C(=O)N3CCCCC3C(=O)O2)CC[C@H]1OCCCN1CCCCC1 (stereo partly drawn) [Compound 101]
< 1000 | < 0.316 | CO[C@@H]1C[C@H](C[C@@H](C)[C@@H]2CC(=O)[C@H](C)/C=C(\C)[C@@H](O)[C@@H](OC)C(=O)[C@H](C)C[C@H](C)/C=C/C=C/C=C(\C)C(OCCc3ccccc3)C[C@@H]3CC[C@@H](C)[C@@](O)(O3)C(=O)C(=O)N3CCCCC3C(=O)O2)CC[C@H]1OC(=O)NCCN(C)C (stereo partly drawn) [Compound 104, [(1R,2R,4S)-4-[(2R)-2-[(1R,9S,12S,15R,16E,18R,19R,21R,23S,24E,26E,28E,32S,35R)-1,18-dihydroxy-19-methoxy-15,17,21,23,29,35-hexamethyl-2,3,10,14,20-pentaoxo-30-(2-phenylethoxy)-11,36-dioxa-4-azatricyclo[30.3.1.0^4,9]hexatriaconta-16,24,26,28-tetraen-12-yl]propyl]-2-methoxy-cyclohexyl] N-[2-(dimethylamino)ethyl]carbamate]
< 1000 | < 0.316 | CO[C@@H]1C[C@H](C[C@@H](C)[C@@H]2CC(=O)[C@H](C)/C=C(\C)[C@@H](O)[C@@H](OC)C(=O)[C@H](C)C[C@H](C)/C=C/C=C/C=C(\C)C(OCCc3ccccc3)C[C@@H]3CC[C@@H](C)[C@@](O)(O3)C(=O)C(=O)N3CCCCC3C(=O)O2)CC[C@H]1OC(=O)N(C)CCO (stereo partly drawn) [Compound 105]
< 1000 | < 0.316 | CO[C@@H]1C[C@H](C[C@@H](C)[C@@H]2CC(=O)[C@H](C)/C=C(\C)[C@@H](O)[C@@H](OC)C(=O)[C@H](C)C[C@H](C)/C=C/C=C/C=C(\C)C(OCCc3ccccc3)C[C@@H]3CC[C@@H](C)[C@@](O)(O3)C(=O)C(=O)N3CCCCC3C(=O)O2)CC[C@H]1OCCCN1CCOCC1 (stereo partly drawn) [Compound 108]
< 1000 | < 0.316 | CO[C@@H]1C[C@H](C[C@@H](C)[C@@H]2CC(=O)[C@H](C)/C=C(\C)[C@@H](O)[C@@H](OC)C(=O)[C@H](C)C[C@H](C)/C=C/C=C/C=C(\C)C(OCCc3ccccc3)C[C@@H]3CC[C@@H](C)[C@@](O)(O3)C(=O)C(=O)N3CCCCC3C(=O)O2)CC[C@H]1OC(=O)NCCO (stereo partly drawn) [Compound 111, [(1R,2R,4S)-4-[(2R)-2-[(1R,9S,12S,15R,16E,18R,19R,21R,23S,24E,26E,28E,32S,35R)-1,18-dihydroxy-19-methoxy-15,17,21,23,29,35-hexamethyl-2,3,10,14,20-pentaoxo-30-(2-phenylethoxy)-11,36-dioxa-4-azatricyclo[30.3.1.0^4,9]hexatriaconta-16,24,26,28-tetraen-12-yl]propyl]-2-methoxy-cyclohexyl] N-(2-hydroxyethyl)carbamate]
< 1000 | < 0.316 | CO[C@@H]1C[C@H](C[C@@H](C)[C@@H]2CC(=O)[C@H](C)/C=C(\C)[C@@H](O)[C@@H](OC)C(=O)[C@H](C)C[C@H](C)/C=C/C=C/C=C(\C)C(OCCc3ccccc3)C[C@@H]3CC[C@@H](C)[C@@](O)(O3)C(=O)C(=O)N3CCCCC3C(=O)O2)CC[C@H]1OC(=O)NCCN1CCCCC1 (stereo partly drawn) [Compound 113]

The next lines start with the molecule.

SMILES | IC50 [1] [nM] | IC50 [2] [nM]
CO[C@@H]1C[C@H](C[C@@H](C)[C@@H]2CC(=O)[C@H](C)/C=C(\C)[C@@H](O)[C@@H](OC)C(=O)[C@H](C)C[C@H](C)/C=C/C=C/C=C(\C)C(OCC(C)(C)O)C[C@@H]3CC[C@@H](C)[C@@](O)(O3)C(=O)C(=O)N3CCCCC3C(=O)O2)CC[C@H]1OCCCO (stereo partly drawn) [Compound 98] | 1000 to 10000 | 0.316 to 3.16
COCCCCOC1C[C@@H]2CC[C@@H](C)[C@@](O)(O2)C(=O)C(=O)N2CCCCC2C(=O)O[C@H]([C@H](C)C[C@@H]2CC[C@@H](OCCO)[C@H](OC)C2)CC(=O)[C@H](C)/C=C(\C)[C@@H](O)[C@@H](OC)C(=O)[C@H](C)C[C@H](C)/C=C/C=C/C=C/1C (stereo partly drawn) [Compound 102] | 1000 to 10000 | < 0.316
CO[C@@H]1C[C@H](C[C@@H](C)[C@@H]2CC(=O)[C@H](C)/C=C(\C)[C@@H](O)[C@@H](OC)C(=O)[C@H](C)C[C@H](C)/C=C/C=C/C=C(\C)C(OCCC3CCOCC3)C[C@@H]3CC[C@@H](C)[C@@](O)(O3)C(=O)C(=O)N3CCCCC3C(=O)O2)CC[C@H]1OCCCO (stereo partly drawn) [Compound 106] | 1000 to 10000 | 0.316 to 3.16
CO[C@@H]1C[C@H](C[C@@H](C)[C@@H]2CC(=O)[C@H](C)/C=C(\C)[C@@H](O)[C@@H](OC)C(=O)[C@H](C)C[C@H](C)/C=C/C=C/C=C(\C)C(OCCc3ccccc3)C[C@@H]3CC[C@@H](C)[C@@](O)(O3)C(=O)C(=O)N3CCCCC3C(=O)O2)CC[C@H]1OC(=O)N(C)CCN(C)C (stereo partly drawn) [Compound 109] | < 1000 | < 0.316
CO[C@@H]1C[C@H](C[C@@H](C)[C@@H]2CC(=O)[C@H](C)/C=C(\C)[C@@H](O)[C@@H](OC)C(=O)[C@H](C)C[C@H](C)/C=C/C=C/C=C(\C)C(OCCc3ccccc3)C[C@@H]3CC[C@@H](C)[C@@](O)(O3)C(=O)C(=O)N3CCCCC3C(=O)O2)CC[C@H]1OC(=O)NCCc1c[nH]cn1 (stereo partly drawn) [Compound 110] | < 1000 | < 0.316
CO[C@@H]1C[C@H](C[C@@H](C)[C@@H]2CC(=O)[C@H](C)/C=C(\C)[C@@H](O)[C@@H](OC)C(=O)[C@H](C)C[C@H](C)/C=C/C=C/C=C(\C)C(OCCc3ccccc3)C[C@@H]3CC[C@@H](C)[C@@](O)(O3)C(=O)C(=O)N3CCCCC3C(=O)O2)CC[C@H]1OC(=O)N(CCO)CCO (stereo partly drawn) [Compound 112, [(1R,2R,4S)-4-[(2R)-2-[(1R,9S,12S,15R,16E,18R,19R,21R,23S,24E,26E,28E,32S,35R)-1,18-dihydroxy-19-methoxy-15,17,21,23,29,35-hexamethyl-2,3,10,14,20-pentaoxo-30-(2-phenylethoxy)-11,36-dioxa-4-azatricyclo[30.3.1.0^4,9]hexatriaconta-16,24,26,28-tetraen-12-yl]propyl]-2-methoxy-cyclohexyl] N,N-bis(2-hydroxyethyl)carbamate] | < 1000 | < 0.316
CO[C@@H]1C[C@H](C[C@@H](C)[C@@H]2CC(=O)[C@H](C)/C=C(\C)[C@@H](O)[C@@H](OC)C(=O)[C@H](C)C[C@H](C)/C=C/C=C/C=C(\C)C(OCCc3ccccc3)C[C@@H]3CC[C@@H](C)[C@@](O)(O3)C(=O)C(=O)N3CCCCC3C(=O)O2)CC[C@H]1OC(=O)NCCn1cnnn1 (stereo partly drawn) [Compound 114] | < 1000 | < 0.316
